Assay: In vitro dermal absorption of hesperidin on Franz cells with skin explants (1st experimental part)
Assay type: in vitro ADME
Conditions: hesperidin 0.5 weight % of sample
From the text: The diffusion of a first active ingredient, hesperidin, in the different layers of the skin has been assessed based on the manner by which it has been applied on the skin, namely: • 1) in the case where the hesperidin has been encapsulated in microparticles according to the invention, and following Example 1 which has been detailed above, • 2) in the case where the hesperidin has been encapsulated in microparticles of polymers, • 3) in the case where the hesperidin has been provided in a free form, • 4) in the case where the hesperidin has been provided in the form of an inclusion complex with a cyclodextrin.
These 4 preparations have constituted 4 samples of cutaneous application of hesperidin. Hesperidin represented 0.5 weight % of the mass of each of these 4 samples.
Tests on these 4 samples have been carried out in accordance with the Directives: SCCS/1358/10 on date of Jun. 22, 2010 <<Basic criteria for the in vitro assessment of dermal absorption of cosmetic ingredient>>, OECD 28 of 2004. OECD being the abbreviation of <<Organization for Economic Co-operation and Development>> and SCCS being the abbreviation of <<Scientific Committee on Consumer Safety>>.
The material that has been used consisted of Franz cells. Skin explants, with an average surface area of 2.54 cm^2 and with a thickness comprised between 1.1 and 1.35 mm, have been used. […]

COc1ccc([C@@H]2CC(=O)c3c(O)cc(O[C@@H]4O[C@H](CO[C@@H]5O[C@@H](C)[C@H](O)[C@@H](O)[C@H]5O)[C@@H](O)[C@H](O)[C@H]4O)cc3O2)cc1O [hesperidin in a free form, hesperidin]
amount of hesperidin cumulated in the dermis during 24 hours: 1.98 μg/cm^2

From patent US20160175229A1, “MICROPARTICLES WITH CYCLODEXTRINS HAVING A DUAL LEVEL OF ENCAPSULATION” (LCA DERMATECH, priority 2013, published 2016)
